# Assay results as given in patent US10259818B2, “Bicyclic azaheterocyclobenzylamines as PI3K inhibitors” (Incyte Corporation, priority 2012, dated 2019).
# Where a name gives a salt, the structure may show the parent alone.
# System: SUDHL-6 cell line (diffuse large B cell lymphoma)
# Assay: SUDHL-6 cell proliferation assay (Example B3)
# Format: cell-based
# Settings: Homo sapiens, SU-DHL-6, 72 h, SUDHL-6 cells, 3 days, Cell Titer-GLO
# Experimental: Example B3: SUDHL-6 Cell Proliferation Assay
# SUDHL-6 cell line (diffuse large B cell lymphoma) was purchased from ATCC (Manassas, Va.) and maintained in the culture medium recommended (RPMI and 10% FBS). To measure the anti-proliferation activity of the compounds through ATP quantitation, the SUDHL-6 cells was plated with the culture medium (5000 cells/well/per 200 μl) into 96-well polystyrene clear black tissue culture plate (Greiner-bio-one through VWR, NJ) in the presence or absence of a concentration range of test compounds. After 3 days, Cell Titer-GLO Luminescent (Promega, Madison, Wis.) cell culture agent was added to each well for 10 minutes at room temperature to stabilize the luminescent signal. This determines the number of viable cells in culture based on quantitation of the ATP present, which signals the presence of metabolically active cells. Luminescence was measured with the TopCount 384 (Packard Bioscience through Perkin Elmer, Boston, Mass.). […] IC50 data for the Examples is presented in Table 4 determined by the assay of Example B3.
row,Structure (SMILES),IC50 [nM]
1,"CC(=O)N1CC(N2CCOc3c(C(C)n4nc(C)c5c(N)ncnc54)cc(Cl)c(F)c3C2)C1 (stereo not shown) [Example 34, 1-{1-[4-(1-Acetylazetidin-3-yl)-7-chloro-6-fluoro-2,3,4,5-tetrahydro-1,4-benzoxazepin-9-yl]ethyl}-3-methyl-1H-pyrazolo[3,4-d]pyrimidin-4-amine]",≤ 500
2,"Cc1nn(C(C)c2cc(Cl)c(F)c3c2O[C@@H](C)CN(C2CC(C(=O)O)C2)C3)c2ncnc(N)c12 (stereo partly shown) [Example 41, 3-[9-[1-(4-Amino-3-methyl-1H-pyrazolo[3,4-d]pyrimidin-1-yl)ethyl]-7-chloro-6-fluoro-2-methyl-2,3-dihydro-1,4-benzoxazepin-4(5H)-yl]cyclobutanecarboxylic Acid Trifluoroacetate]",≤ 500
3,"CC(=O)N1CC(N2CCOc3c(C(C)n4nc(C)c5c(N)ncnc54)cc(Cl)c(C#N)c3C2)C1 (stereo not shown) [Example 46, 4-(1-Acetylazetidin-3-yl)-9-[1-(4-amino-3-methyl-1H-pyrazolo [3,4-d]pyrimidin-1-yl)ethyl]-7-chloro-2,3,4,5-tetrahydro-1,4-benzoxazepine-6-carbonitrile]",≤ 500
4,"Cc1nn(C(C)c2cc(Cl)c(C#N)c3c2OCCN(C2CN(CCO)C2)C3)c2ncnc(N)c12 (stereo not shown) [Example 47, 9-[1-(4-amino-3-methyl-1H-pyrazolo[3,4-d]pyrimidin-1-yl)ethyl]-7-chloro-4-[1-(2-hydroxyethyl)azetidin-3-yl]-2,3,4,5-tetrahydro-1,4-benzoxazepine-6-carbonitrile]",≤ 500
5,"Cc1nn(C(C)c2cc(Cl)c(C#N)c3c2O[C@@H](C)CN(C2CN(CCO)C2)C3)c2ncnc(N)c12 (stereo partly drawn) [Example 56, (2S)-9-[1-(4-Amino-3-methyl-1H-pyrazolo[3,4-d]pyrimidin-1-yl)ethyl]-7-chloro-4-[1-(2-hydroxyethyl)azetidin-3-yl]-2-methyl-2,3,4,5-tetrahydro-1,4-benzoxazepine-6-carbonitrile]",≤ 500
6,"CC(=O)N1CC(N2Cc3c(F)c(Cl)cc(C(C)n4nc(C)c5c(N)ncnc54)c3OC(C)C2=O)C1 (stereo not shown) [Example 71, 4-(1-Acetylazetidin-3-yl)-9-[1-(4-amino-3-methyl-1H-pyrazolo[3,4-d]pyrimidin-1-yl)ethyl]-7-chloro-6-fluoro-2-methyl-4,5-dihydro-1,4-benzoxazepin-3(2H)-one]",500 to 1000
7,"Cc1nn(C(C)c2cc(Cl)c(F)c3c2OCCN(C2CN(C(=O)N(C)C)C2)C3)c2ncnc(N)c12 (stereo not shown) [Example 73, 3-[9-[1-(4-amino-3-methyl-1H-pyrazolo[3,4-d]pyrimidin-1-yl)ethyl]-7-chloro-6-fluoro-2,3-dihydro-1,4-benzoxazepin-4(5H)-yl]-N,N-dimethylazetidine-1-carboxamide]",≤ 500
8,"Cc1nn(C(C)c2cc(Cl)c(F)c3c2OCCN(C2CN(S(=O)(=O)N(C)C)C2)C3)c2ncnc(N)c12 (stereo not shown) [Example 74, 3-[9-[1-(4-amino-3-methyl-1H-pyrazolo[3,4-d]pyrimidin-1-yl)ethyl]-7-chloro-6-fluoro-2,3-dihydro-1,4-benzoxazepin-4(5H)-yl]-N,N-dimethylazetidine-1-sulfonamide]",500 to 1000
9,"Cc1nn(C(C)c2cc(Cl)c(F)c3c2OC(C)CN(C2CN(S(C)(=O)=O)C2)C3)c2ncnc(N)c12 (stereo not shown) [Example 75, 1-(1-{7-chloro-6-fluoro-2-methyl-4-[1-(methylsulfonyl)azetidin-3-yl]-2,3,4,5-tetrahydro-1,4-benzoxazepin-9-yl}ethyl)-3-methyl-1H-pyrazolo[3,4-d]pyrimidin-4-amine]",≤ 500
10,"CCC(=O)N1CC(N2Cc3c(F)c(Cl)cc(C(C)n4nc(C)c5c(N)ncnc54)c3OC(C)C2)C1 (stereo not shown) [Example 76, 1-{1-[7-chloro-6-fluoro-2-methyl-4-(1-propionylazetidin-3-yl)-2,3,4,5-tetrahydro-1,4-benzoxazepin-9-yl]ethyl}-3-methyl-1H-pyrazolo[3,4-d]pyrimidin-4-amine]",≤ 500
11,"Cc1nn([C@@H](C)c2cc(Cl)c(F)c3c2O[C@@H](C)CN(C2CN(C[C@H](C)O)C2)C3)c2ncnc(N)c12 [Example 85, (2S)-1-{3-[(2S)-9-[(1S)-1-(4-amino-3-methyl-1H-pyrazolo[3,4-d]pyrimidin-1-yl)ethyl]-7-chloro-6-fluoro-2-methyl-2,3-dihydro-1,4-benzoxazepin-4(5H)-yl]azetidin-1-yl}propan-2-ol]",≤ 500
12,"Cc1nn([C@@H](C)c2cc(Cl)c(F)c3c2O[C@@H](C)CN(C2CN(C[C@@H](C)O)C2)C3)c2ncnc(N)c12 [Example 86, (2R)-1-{3-[(2S)-9-[(1S)-1-(4-amino-3-methyl-1H-pyrazolo[3,4-d]pyrimidin-1-yl)ethyl]-7-chloro-6-fluoro-2-methyl-2,3-dihydro-1,4-benzoxazepin-4(5H)-yl]azetidin-1-yl}propan-2-ol]",≤ 500

# Next, values leading:
row,IC50 [nM],Structure (SMILES)
1,≤ 500,"Cc1c(Cl)cc(C(C)n2nc(C)c3c(N)ncnc32)c2c1CN(C1CCCC1)CCO2 (stereo not shown) [Example 6, 1-[1-(7-Chloro-4-cyclopentyl-6-methyl-2,3,4,5-tetrahydro-1,4-benzoxazepin-9-yl)ethyl]-3-methyl-1H-pyrazolo[3,4-d]pyrimidin-4-amine bis(trifluoroacetate)]"
2,≤ 500,"Cc1c(Cl)cc(C(C)n2nc(C)c3c(N)ncnc32)c2c1CN(C(C)C)CCO2 (stereo not shown) [Example 10, 1-[1-(7-Chloro-4-isopropyl-6-methyl-2,3,4,5-tetrahydro-1,4-benzoxazepin-9-yl)ethyl]-3-methyl-1H-pyrazolo[3,4-d]pyrimidin-4-amine bis(trifluoroacetate)]"
3,≤ 500,"Cc1c(Cl)cc(C(C)n2nc(C)c3c(N)ncnc32)c2c1CN(C(=O)CC#N)CCO2 (stereo not shown) [Example 12, 3-[9-[1-(4-Amino-3-methyl-1H-pyrazolo[3,4-d]pyrimidin-1-yl)ethyl]-7-chloro-6-methyl-2,3-dihydro-1,4-benzoxazepin-4(5H)-yl]-3-oxopropanenitrile trifluoroacetate]"
4,≤ 500,"Cc1c(Cl)cc(C(C)n2nc(C)c3c(N)ncnc32)c2c1CN(S(C)(=O)=O)CCO2 (stereo not shown) [Example 13, 1-{1-[7-Chloro-6-methyl-4-(methylsulfonyl)-2,3,4,5-tetrahydro-1,4-benzoxazepin-9-yl]ethyl}-3-methyl-1H-pyrazolo[3,4-d]pyrimidin-4-amine Trifluoroacetate]"
5,500 to 1000,"Cc1c(Cl)cc(C(C)n2nc(C)c3c(N)ncnc32)c2c1CN(S(=O)(=O)C1CC1)CCO2 (stereo not shown) [Example 18, 1-{1-[7-Chloro-4-(cyclopropylsulfonyl)-6-methyl-2,3,4,5-tetrahydro-1,4-benzoxazepin-9-yl]ethyl}-3-methyl-1H-pyrazolo[3,4-d]pyrimidin-4-amine Trifluoroacetate]"
6,≤ 500,"CCC(=O)N1CCOc2c(C(C)n3nc(C)c4c(N)ncnc43)cc(Cl)c(C)c2C1 (stereo not shown) [Example 20, 1-[1-(7-Chloro-6-methyl-4-propionyl-2,3,4,5-tetrahydro-1,4-benzoxazepin-9-yl)ethyl]-3-methyl-1H-pyrazolo[3,4-d]pyrimidin-4-amine Trifluoroacetate]"
7,≤ 500,"COCC(=O)N1CCOc2c(C(C)n3nc(C)c4c(N)ncnc43)cc(Cl)c(C)c2C1 (stereo not shown) [Example 21, 1-{1-[7-Chloro-4-(methoxyacetyl)-6-methyl-2,3,4,5-tetrahydro-1,4-benzoxazepin-9-yl]ethyl}-3-methyl-1H-pyrazolo[3,4-d]pyrimidin-4-amine Trifluoroacetate]"
8,≤ 500,"Cc1c(Cl)cc(C(C)n2nc(C)c3c(N)ncnc32)c2c1CN(c1ncc(C#N)s1)CCO2 (stereo not shown) [Example 23, 2-[9-[1-(4-Amino-3-methyl-1H-pyrazolo[3,4-d]pyrimidin-1-yl)ethyl]-7-chloro-6-methyl-2,3-dihydro-1,4-benzoxazepin-4(5H)-yl]-1,3-thiazole-5-carbonitrile Trifluoroacetate]"
9,500 to 1000,"Cc1c(Cl)cc(C(C)n2nc(C)c3c(N)ncnc32)c2c1CN(c1cnccn1)CCO2 (stereo not shown) [Example 24, 1-[1-(7-Chloro-6-methyl-4-pyrazin-2-yl-2,3,4,5-tetrahydro-1,4-benzoxazepin-9-yl)ethyl]-3-methyl-1H-pyrazolo[3,4-d]pyrimidin-4-amine bis(trifluoroacetate)]"
10,≤ 500,"Cc1nn(C(C)c2cc(Cl)c(C#N)c3c2OCCN(CCO)C3)c2ncnc(N)c12 (stereo not shown) [Example 58, 9-[1-(4-Amino-3-methyl-1H-pyrazolo[3,4-d]pyrimidin-1-yl)ethyl]-7-chloro-4-(2-hydroxyethyl)-2,3,4,5-tetrahydro-1,4-benzoxazepine-6-carbonitrile]"

# Same assay, conditions: SUDHL-6 cells, 3 days, Cell Titer-GLO
row,IC50 [nM],Structure (SMILES)
1,≤ 500,"Cc1nn(C(C)c2cc(Cl)c(F)c3c2O[C@@H](C)CN(C2CC(C(=O)O)C2)C3)c2ncnc(N)c12 (stereo partly shown) [Example 42, 3-[9-[1-(4-Amino-3-methyl-1H-pyrazolo[3,4-d]pyrimidin-1-yl)ethyl]-7-chloro-6-fluoro-2-methyl-2,3-dihydro-1,4-benzoxazepin-4(5H)-yl]cyclobutanecarboxylic Acid Trifluoroacetate]"
2,≤ 500,"Cc1nn(C(C)c2cc(Cl)c(C#N)c3c2OC(C)CN(C2CN(CC(N)=O)C2)C3)c2ncnc(N)c12 (stereo not shown) [Example 51, 2-{3-[9-[1-(4-Amino-3-methyl-1H-pyrazolo[3,4-d]pyrimidin-1-yl)ethyl]-7-chloro-6-cyano-2-methyl-2,3-dihydro-1,4-benzoxazepin-4(5H)-yl]azetidin-1-yl}acetamide]"
3,≤ 500,"Cc1nn(C(C)c2cc(Cl)c(C#N)c3c2O[C@@H](C)CN(C2CN(CCO)C2)C3)c2ncnc(N)c12 (stereo partly drawn) [Example 57, (2S)-9-[1-(4-Amino-3-methyl-1H-pyrazolo[3,4-d]pyrimidin-1-yl)ethyl]-7-chloro-4-[1-(2-hydroxyethyl)azetidin-3-yl]-2-methyl-2,3,4,5-tetrahydro-1,4-benzoxazepine-6-carbonitrile]"
